Measured values published in patent publication US11098238B2, “Tracer and method” (JOHNSON MATTHEY PUBLIC LIMITED COMPANY, priority 2016, dated 2021).

Tests used:
[1] = log Kow (octanol/water partition coefficient); assay type: physicochemical; details: for Log Kow: base-10 logarithm of ratio of equilibrium concentrations in octanol and water
Source text: Preferably the system is an oil reservoir and the property is the residual oil saturation. Thus, preferably the use is of a partitioning tracer for determining residual oil saturation, the partitioning tracer comprising a sulfone compound having a log Kow value in the range −0.5 to 3. Preferably the log Kow value is in the range 0.5 to 1.5. Those ranges may give optimum partitioning into the oil in the formation. If the log Kow value is too high, the partitioning tracer will spend too long in the oil and will not be released from the well in a reasonable time, or even at all. If the log Kow value is too low, the partitioning tracer will largely remain in the water phase and there will not be a sufficient differential between the release of the conservative and partitioning tracers. The log Kow value is the base-10 logarithm of the ratio of the equilibrium concentrations of the tracer in octanol and water and can be determined for example, by the method described in “Experimental Aspects of Partitioning Tracer Tests for Residual Oil Saturation Determination with FIA-based Laboratory Equipment, SPE Reservoir Engineering, May 1990, pages 239-244”.
The log Kow values are either experimentally determined or estimated using KOWWIN v1.68.

[2] = Vapour pressure

Log Kow [1] | log Kow value [1] | SMILES | Vapour Pressure [2] [mm Hg]
1.72 | – | OCc1ccc(Cl)cc1 [4-Chlorobenzyl alcohol, 4-chlorobenzyl alcohol] | 0.00268
– | −1.11 | CS(C)(=O)=O [dimethylsulfone] | –
1.21 | – | CS(=O)(=O)c1ccc(Cl)cc1 [4-Chlorophenyl methyl sulfone, 4-chlorophenyl methyl sulfone] | –

SMILES | Log Kow [1] | log Kow value [1] | Vapour Pressure [2] [mm Hg]
OC(C(F)(F)F)C(F)(F)F [1,1,1,3,3,3-Hexafluoro-2-propanol, 1,1,1,3,3,3-hexafluoro-2-propanol] | 1.66 | – | 156
